Laboratory results reported in article PMC8635440 (Science Advances, 2021).
pKd: −log10 of the molar value. Blank lines part the entries; values can stand above or below the compound they belong to. Positions of bridges follow the written chain, without caps; N, C: chain ends. Non-standard residues stand in square brackets, D forms with d. Residues, ends and D or L forms follow the SMILES beside them.

Assays:
retromer holo-complex = retromer holo-complex (Homo sapiens, UniProt O75436+Q96QK1+Q9UBQ0); test: Differential scanning fluorimetry of retromer; format: binding; conditions: DSF
Vps29 = Vps29 (Homo sapiens, UniProt Q9UBQ0); test: Differential scanning fluorimetry of Vps29; format: binding; conditions: DSF, 20-fold molar excess
[1] = system: TBC1D5 localization in HeLa cells; test: TBC1D5 endosomal localization after SLO delivery of peptide; format: cell-based, human; conditions: 2 hours recovery, colocalization with SNX1
SNX27PDZ into Retromer = SNX27PDZ into Retromer (Homo sapiens, UniProt O75436+Q96QK1+Q9UBQ0); test: ITC of SNX27PDZ into retromer in presence of cyclic peptide; format: binding, mouse SNX27; conditions: 1.3 mM SNX27PDZ into 30 μM retromer + 150 μM peptide; native (DMSO) 13.0 ± 0.5
[2] = target: GST-TBC1D5TBC binding to retromer (Homo sapiens, UniProt O75436+Q96QK1+Q9UBQ0); test: GST pull-down assay; conditions: GST pulldown, purified proteins
TBC1D5TBC into Retromer = TBC1D5TBC into Retromer (Homo sapiens, UniProt O75436+Q96QK1+Q9UBQ0); test: ITC of TBC1D5TBC into retromer in presence of cyclic peptide; format: binding; conditions: native 370 nM
Solubility observations = format: physicochemical; conditions: ITC buffer
ctRetromer = target: T1, ctRetromer (Thermochaetoides thermophila, UniProt G0S0E6+G0S709); test: ITC binding to C. thermophilum retromer; parameters: species or system Chaetomium thermophilum; conditions: 25°C
T1 sequence (G0S709 1-869): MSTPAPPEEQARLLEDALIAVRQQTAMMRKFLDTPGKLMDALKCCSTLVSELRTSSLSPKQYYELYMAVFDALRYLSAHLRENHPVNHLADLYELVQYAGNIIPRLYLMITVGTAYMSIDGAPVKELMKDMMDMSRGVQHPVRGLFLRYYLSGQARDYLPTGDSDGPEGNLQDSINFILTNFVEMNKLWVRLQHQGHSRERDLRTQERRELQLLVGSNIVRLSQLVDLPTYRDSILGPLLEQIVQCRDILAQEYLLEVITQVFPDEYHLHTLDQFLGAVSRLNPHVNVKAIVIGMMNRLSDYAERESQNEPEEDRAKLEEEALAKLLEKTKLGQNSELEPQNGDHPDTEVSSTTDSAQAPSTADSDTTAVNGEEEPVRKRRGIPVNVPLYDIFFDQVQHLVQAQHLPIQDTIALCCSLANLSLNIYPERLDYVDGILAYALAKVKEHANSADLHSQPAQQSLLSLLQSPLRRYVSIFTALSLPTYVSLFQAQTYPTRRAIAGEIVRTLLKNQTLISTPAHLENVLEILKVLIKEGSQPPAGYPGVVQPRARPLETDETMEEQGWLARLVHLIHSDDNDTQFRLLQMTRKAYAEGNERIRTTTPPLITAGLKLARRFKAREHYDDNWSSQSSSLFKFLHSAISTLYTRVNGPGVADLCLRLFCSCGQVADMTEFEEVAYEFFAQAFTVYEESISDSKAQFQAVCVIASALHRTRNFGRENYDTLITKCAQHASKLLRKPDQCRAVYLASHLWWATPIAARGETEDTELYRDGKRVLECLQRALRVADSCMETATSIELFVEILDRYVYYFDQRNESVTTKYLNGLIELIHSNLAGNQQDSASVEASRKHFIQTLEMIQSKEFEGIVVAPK
T1 sequence (G0S0E6 1-316): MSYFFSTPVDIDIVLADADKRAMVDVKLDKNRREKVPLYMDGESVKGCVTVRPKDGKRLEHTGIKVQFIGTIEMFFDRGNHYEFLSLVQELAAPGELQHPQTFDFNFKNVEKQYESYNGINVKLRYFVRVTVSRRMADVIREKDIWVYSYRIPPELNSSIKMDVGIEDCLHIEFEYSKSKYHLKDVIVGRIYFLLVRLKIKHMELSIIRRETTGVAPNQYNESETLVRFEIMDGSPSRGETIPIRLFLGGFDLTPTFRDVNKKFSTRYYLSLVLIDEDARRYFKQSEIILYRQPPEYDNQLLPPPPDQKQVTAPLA

[3] = target: Vps26A-Vps35_1–390 subcomplex (Homo sapiens, UniProt O75436+Q96QK1); test: Differential scanning fluorimetry of Vps26A-Vps35 1-390; format: binding; conditions: DSF
zfRetromer = zfRetromer (Danio rerio, UniProt A4QP42+Q6TNP8); test: ITC binding to zebrafish retromer
Vps26A = Vps26A (Homo sapiens, UniProt O75436); test: Differential scanning fluorimetry of Vps26A; format: binding; conditions: DSF, control experiment
Vps26BΔC-Vps35_1–390 = Vps26BΔC-Vps35_1–390 (UniProt Q8C0E2+Q96QK1); test: ITC binding to Vps26B ΔC-term. tail subcomplex; parameters: species or system mouse Vps26B, human Vps35
[4] = target: Rab7a with TBC1D5TBC and retromer (Homo sapiens, UniProt O75436+Q96QK1+Q9UBQ0); test: GTPase activity assay; format: biochemical; conditions: 10 μM Rab7a, 3 μM TBC1D5TBC, 6 μM retromer, 60 μM peptide
[5] = target: Vps26A9-298_Vps351-390 (Δ C-term. tail complex) (Homo sapiens, UniProt O75436+Q96QK1); test: ITC binding to Vps26A ΔC-term. tail subcomplex; conditions: 25°C, Vps26A C-terminal tail removed
[6] = target: retromer and its ligands in HeLa cell lysates (Homo sapiens, UniProt O75436+Q96QK1+Q9UBQ0); test: Biotinylated cyclic peptide pull-down from HeLa cell lysates; format: binding; conditions: streptavidin agarose, Western blotting
[7] = target: retromer binding to SNX3–CI-MPR cargo-PtdIns3P liposomes (Homo sapiens, UniProt O75436+Q96QK1+Q9UBQ0); test: Liposome binding assay; conditions: Folch I liposomes, 7 μM retromer-SNX3
[8] = target: human retromer complex (Vps35-[change]-Vps29) (human) (UniProt Q96QK1); test: ITC

impact on thermal stability (Tm) of retromer (retromer holo-complex; 3 µM Retromer, 60 μM compound or 30-fold molar excess of peptide): unable to detect significant improvement
impact on Retromer stability (retromer holo-complex; 1 mM (>300-fold molar excess)): little impact
Compound: N=C(N)SCc1ccc(CSC(=N)N)s1 [R55]

effect on melting temperature (Tm) of Vps29 (Vps29): increased
Compound: CC[C@H](C)[C@@H]1NC(=O)[C@H]([C@@H](C)CC)NC(=O)[C@@H](Cc2ccc(O)cc2)NC(=O)CSC[C@@H](C(N)=O)NC(=O)[C@H](CCCNC(=N)N)NC(=O)[C@H](CCCCN)NC(=O)[C@H](CC(C)C)NC(=O)[C@H](CO)NC(=O)[C@H](CO)NC(=O)[C@H](CC(C)C)NC(=O)[C@H](Cc2ccccc2)NC(=O)[C@H](C(C)C)NC(=O)CNC(=O)[C@H](CC(C)C)NC(=O)[C@@H]2CCCN2C(=O)[C@H]([C@@H](C)O)NC(=O)[C@H](CC(=O)O)NC1=O [RT-D1] ({CH2CO}-[dY]IIDTPLGVFLSSLKRC-NH2; thioether N-17)

effect on melting temperature (Tm) of Vps29 (Vps29): increased
Compound: CC[C@H](C)[C@@H]1NC(=O)[C@H](CCCNC(=N)N)NC(=O)[C@@H]2CCCN2C(=O)[C@H](Cc2ccccc2)NC(=O)[C@H]([C@@H](C)O)NC(=O)CNC(=O)[C@H](CC(C)C)NC(=O)[C@@H]2CCCN2C(=O)[C@H]([C@@H](C)O)NC(=O)[C@H](Cc2c[nH]c3ccccc23)NC(=O)[C@H](Cc2ccc(O)cc2)NC(=O)[C@H]([C@@H](C)CC)NC(=O)[C@H]([C@@H](C)O)NC(=O)[C@H]([C@@H](C)O)NC(=O)[C@@H](Cc2ccc(O)cc2)NC(=O)CSC[C@@H](C(N)=O)NC(=O)[C@H](CCCNC(=N)N)NC1=O [RT-D2] ({CH2CO}-[dY]TTIYWTPLGTFPRIRC-NH2; thioether N-17)

effect on melting temperature (Tm) of Vps29 (Vps29): increased
Compound: CC[C@H](C)[C@@H]1NC(=O)[C@H](Cc2ccc(O)cc2)NC(=O)CSC[C@@H](C(N)=O)NC(=O)CNC(=O)[C@H](Cc2c[nH]cn2)NC(=O)[C@H](CCCNC(=N)N)NC(=O)[C@H](CC(N)=O)NC(=O)[C@@H]2CCCN2C(=O)[C@H](Cc2ccccc2)NC(=O)[C@H]([C@@H](C)O)NC(=O)CNC(=O)[C@H](CC(C)C)NC(=O)[C@@H]2CCCN2C(=O)[C@H]([C@@H](C)O)NC(=O)[C@H](CCCCN)NC1=O [RT-L1] ({CH2CO}-YIKTPLGTFPNRHGC-NH2; thioether N-15)

effect on melting temperature (Tm) of Vps29 (Vps29): increased
Compound: CC[C@H](C)[C@@H]1NC(=O)[C@H]([C@@H](C)O)NC(=O)[C@@H]2CCCN2C(=O)[C@H](CC(C)C)NC(=O)[C@H](Cc2ccc(O)cc2)NC(=O)CSC[C@@H](C(N)=O)NC(=O)[C@H](CC(C)C)NC(=O)[C@@H]2CCCN2C(=O)[C@H](Cc2c[nH]cn2)NC(=O)[C@H](Cc2c[nH]c3ccccc23)NC(=O)[C@H](CC(C)C)NC(=O)[C@H](Cc2c[nH]cn2)NC(=O)CNC(=O)[C@H](C(C)C)NC(=O)CNC(=O)[C@H]([C@@H](C)O)NC1=O [RT-L2] ({CH2CO}-YLPTITGVGHLWHPLC-NH2; thioether N-16)

Second part, the compound before the results:

Compound: CC(C)C[C@@H]1NC(=O)CNC(=O)[C@H](CC(C)C)NC(=O)[C@@H]2CCCN2C(=O)[C@H](CC(=O)O)NC(=O)[C@H](Cc2ccc(O)cc2)NC(=O)CNC(=O)[C@@H](Cc2ccc(O)cc2)NC(=O)CSC[C@@H](C(N)=O)NC(=O)[C@H](C)NC(=O)[C@H](Cc2ccccc2)NC(=O)[C@H](Cc2ccc(O)cc2)NC(=O)[C@H](CCCCN)NC1=O [RT-D3] ({CH2CO}-[dY]GYDPLGLKYFAC-NH2; thioether N-13)
effect on melting temperature (Tm) of Vps29 (Vps29): increased
effect on TBC1D5 localization to endosomal structures [1]: significant dispersal
Kd (SNX27PDZ into Retromer): no impact
effect on GST-TBC1D5TBC interaction with retromer [2]: inhibited
Kd (TBC1D5TBC into Retromer): undetectable

Compound: CC(C)C[C@@H]1NC(=O)[C@@H]2CCCN2C(=O)[C@H](CC(=O)O)NC(=O)[C@H](Cc2c[nH]c3ccccc23)NC(=O)CNC(=O)[C@@H](Cc2ccc(O)cc2)NC(=O)CSC[C@@H](C(N)=O)NC(=O)[C@H](C(C)C)NC(=O)[C@H](Cc2ccccc2)NC(=O)[C@H](Cc2ccc(O)cc2)NC(=O)[C@H](CC(N)=O)NC(=O)[C@H](C(C)C)NC(=O)[C@H](Cc2ccc(O)cc2)NC1=O [RT-D4] ({CH2CO}-[dY]GWDPLYVNYFVC-NH2; thioether N-13)
solubility for ITC experiments (Solubility observations): not sufficiently soluble for ITC experiments

Compound: CC(C)C[C@@H]1NC(=O)[C@H](Cc2ccc(O)cc2)NC(=O)CSC[C@@H](C(N)=O)NC(=O)[C@H](CC(N)=O)NC(=O)[C@H](C(C)C)NC(=O)[C@H](Cc2ccc(O)cc2)NC(=O)[C@H](Cc2ccccc2)NC(=O)[C@H](CC(C)C)NC(=O)[C@H](CCCNC(=N)N)NC(=O)[C@H](C(C)C)NC(=O)[C@H](Cc2ccc(O)cc2)NC(=O)[C@H](CC(C)C)NC(=O)[C@@H]2CCCN2C(=O)[C@H](CC(=O)O)NC(=O)[C@H](Cc2ccccc2)NC(=O)[C@H](CCC(=O)O)NC1=O [RT-L3] ({CH2CO}-YLEFDPLYVRLFYVNC-NH2; thioether N-16)
solubility for ITC experiments (Solubility observations): not sufficiently soluble for ITC experiments

Compound: CC[C@H](C)[C@@H]1NC(=O)[C@H](Cc2c[nH]c3ccccc23)NC(=O)[C@H](Cc2ccc(O)cc2)NC(=O)CSC[C@@H](C(N)=O)NC(=O)[C@H]([C@@H](C)O)NC(=O)[C@H](CO)NC(=O)[C@H](C(C)C)NC(=O)[C@H](Cc2ccc(O)cc2)NC(=O)[C@H](CCCNC(=N)N)NC(=O)[C@H](Cc2ccc(O)cc2)NC(=O)[C@H]([C@@H](C)O)NC(=O)[C@H]([C@@H](C)O)NC(=O)[C@H](Cc2c[nH]c3ccccc23)NC(=O)[C@H](CO)NC(=O)[C@H](CC(N)=O)NC(=O)[C@H](CO)NC1=O [RT-L4] ({CH2CO}-YWISNSWTTYRYVSTC-NH2; thioether N-16)
pKd (ctRetromer): 5.30
effect on melting temperature (Tm) of Vps29 (Vps29): did not affect
increase in Tm for the Vps26A-Vps35_1–390 subcomplex [3]: 8 °C
pKd (zfRetromer): 7.06
effect on TBC1D5 localization to endosomal structures [1]: no discernible effect
effect on thermal stability of Vps26A alone (Vps26A): did not affect
pKd (Vps26BΔC-Vps35_1–390): ~7.40
GAP-stimulated GTP hydrolysis of Rab7a [4]: slight improvement
pKd [5]: ~7.40
retromer ligands recovered with peptide-bound retromer [6]: able to interact with TBC1D5, VARP, Fam21, SNX27, and the SNX3–DMT1-II complex
retromer binding to SNX3–CI-MPR cargo-PtdIns3P liposomes [7]: subtle reduction

Compound: TBC domain of human TBC1D5 (from UniProt Q92609 1-795) (domain or fragment)
pKd [8]: 6.43
